Experiment: Solubility of compound in safety solvent
Type: physicochemical
Details: for Solubility in CHN: solvent cyclohexanone (CHN); for Solubility in PGME: solvent propylene glycol monomethyl ether (PGME)
Protocol: (1) Solubility of Compound in Safety Solvent
The compounds obtained in Synthesis Examples 1 to 6 and Synthesis 1 to 4 were evaluated for the solubility in propylene glycol monomethyl ether (PGME) and cyclohexanone (CHN).
B: 1.0 wt %≦dissolved amount<4.0 wt %
C: dissolved amount<1.0 wt %

| SMILES | Solubility in CHN | Solubility in PGME |
| --- | --- | --- |
| CC(C)c1ccc(C2c3cc(c(O)cc3O)C(c3ccc(C(C)C)cc3)c3cc(c(O)cc3O)C(c3ccc(C(C)C)cc3)c3cc(c(O)cc3O)C(c3ccc(C(C)C)cc3)c3cc2c(O)cc3O)cc1 (centres unmarked) [CR-1A] | A (4.0 wt %≦amount) | B (1.0 wt %≦dissolved amount<4.0 wt %) |
| CC(C)Cc1ccc(C2c3cc(c(O)cc3O)C(c3ccc(CC(C)C)cc3)c3cc(c(O)cc3O)C(c3ccc(CC(C)C)cc3)c3cc(c(O)cc3O)C(c3ccc(CC(C)C)cc3)c3cc2c(O)cc3O)cc1 (centres unmarked) [CR-2A] | B (1.0 wt %≦dissolved amount<4.0 wt %) | C (dissolved amount<1.0 wt %) |
| Oc1cc(O)c2cc1C(c1ccc(-c3ccccc3)cc1)c1cc(c(O)cc1O)C(c1ccc(-c3ccccc3)cc1)c1cc(c(O)cc1O)C(c1ccc(-c3ccccc3)cc1)c1cc(c(O)cc1O)C2c1ccc(-c2ccccc2)cc1 (centres unmarked) [CR-3A] | A (4.0 wt %≦amount) | C (dissolved amount<1.0 wt %) |
| Oc1cc(O)c2cc1C(c1ccc(C3CCCCC3)cc1)c1cc(c(O)cc1O)C(c1ccc(C3CCCCC3)cc1)c1cc(c(O)cc1O)C(c1ccc(C3CCCCC3)cc1)c1cc(c(O)cc1O)C2c1ccc(C2CCCCC2)cc1 (centres unmarked) [CR-4A] | A (4.0 wt %≦amount) | B (1.0 wt %≦dissolved amount<4.0 wt %) |
